ChEMBL document CHEMBL4325895, “Discovery and structure-activity-relationship study of novel imidazole cyclopropyl amine analogues for mutant isocitric dehydrogenase 1 (IDH1) inhibitors” (Bioorg Med Chem Lett, 2018)

Legend:
[1] = molecular target: Isocitrate dehydrogenase [NADP] cytoplasmic (Homo sapiens, UniProt O75874, R132H); experiment: Inhibition of IDH1 (unknown origin) R132H mutant using alpha-KG as substrate after 60 mins in presence of NADPH by resazurin dye-based fluorescence assay
[2] = molecular target: Isocitrate dehydrogenase [NADP] cytoplasmic (Homo sapiens, UniProt O75874, R132C); experiment: Inhibition of IDH1 R132C mutant in human HT1080 cells assessed as inhibition of 2HG production after 48 hrs by LC-MS/MS analysis; assay type: cell-based
[3] = Intrinsic clearance in mouse liver microsomes assessed per gram of protein at 0.1 uM after 60 mins in presence of NADPH by LC-MS/MS analysis; assay type: ADME, Microsome; settings: 1 h
[4] = Intrinsic clearance in rat liver microsomes assessed per gram of protein at 0.1 uM after 60 mins in presence of NADPH by LC-MS/MS analysis; assay type: ADME, Microsome; settings: 1 h
[5] = Intrinsic clearance in human liver microsomes assessed per gram of protein at 0.1 uM after 60 mins in presence of NADPH by LC-MS/MS analysis; assay type: ADME, Microsome; settings: 1 h
[6] = Stability in human liver microsomes assessed as parent compound remaining at 0.01 uM after 60 mins by LC-MS/MS analysis; assay type: ADME, Microsome; settings: read-out: Stability
[7] = Clearance in CD-1 mouse at 1 mg/kg, iv by mass spectrometric analysis; assay type: ADME, organism-based; settings: in vivo
[8] = Volume of distribution at steady state in CD-1 mouse at 1 mg/kg, iv by mass spectrometric analysis; assay type: ADME, organism-based; settings: in vivo
[9] = AUC in CD-1 mouse at 1 mg/kg, iv by mass spectrometric analysis; assay type: ADME, organism-based; settings: in vivo
[10] = AUC in CD-1 mouse at 5 mg/kg, po administered via gavage by mass spectrometric analysis; assay type: ADME, organism-based; settings: in vivo
[11] = Oral bioavailability in CD-1 mouse at 5 mg/kg administered via gavage by mass spectrometric analysis; assay type: ADME, organism-based; settings: in vivo
[12] = Dose normalized AUC in CD-1 mouse at 5 mg/kg, po administered via gavage by mass spectrometric analysis; assay type: ADME, organism-based; settings: in vivo
[13] = Drug level in human liver microsomes treated with (R)-3-(2-((1-(1-(3-chloro-4-fluorophenyl)-1H-imidazol-4-yl)cyclopropyl)amino)pyrimidin-4-yl)-4-((S)-1-fluoroethyl)oxazolidin-2-one at 0.01 uM after 60 mins by LC-MS/MS analysis; assay type: ADME, Microsome

Chain of Isocitrate dehydrogenase [NADP] cytoplasmic (Homo sapiens, UniProt O75874, R132H) (O75874 2-414 R132H limits assumed): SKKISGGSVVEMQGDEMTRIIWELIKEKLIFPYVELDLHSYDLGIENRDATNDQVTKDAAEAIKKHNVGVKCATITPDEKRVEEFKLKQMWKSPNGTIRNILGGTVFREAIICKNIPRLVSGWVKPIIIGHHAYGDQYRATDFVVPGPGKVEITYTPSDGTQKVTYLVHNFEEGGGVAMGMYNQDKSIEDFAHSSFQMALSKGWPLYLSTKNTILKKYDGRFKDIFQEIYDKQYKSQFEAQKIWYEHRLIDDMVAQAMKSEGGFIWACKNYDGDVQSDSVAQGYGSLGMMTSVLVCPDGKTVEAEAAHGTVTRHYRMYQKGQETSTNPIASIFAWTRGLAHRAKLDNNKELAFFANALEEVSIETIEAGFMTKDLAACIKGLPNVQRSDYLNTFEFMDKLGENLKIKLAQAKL
Chain of Isocitrate dehydrogenase [NADP] cytoplasmic (Homo sapiens, UniProt O75874, R132C) (O75874 2-414 R132C limits assumed): as the sequence (O75874 2-414 R132H limits assumed) above, with H131C counted along it

Compound	IC50 [1]	IC50 [2]	also measured
C[C@H](F)[C@H]1COC(=O)N1c1ccnc(NC2(c3cn(-c4ccccc4C(F)(F)F)cn3)CC2)n1	112 nM		
Cc1c(C2(Nc3nccc(N4C(=O)OC[C@@H]4[C@H](C)F)n3)CC2)ncn1-c1cccc(C(F)(F)F)c1	56 nM	38 nM	
C[C@H](F)[C@H]1COC(=O)N1c1ccnc(NC2(c3cn(-c4ccc(C(F)(F)F)cc4)cn3)CC2)n1	65 nM	32 nM	
C[C@H](F)[C@H]1COC(=O)N1c1ccnc(NC2(c3ncn(-c4cccc(C(F)(F)F)c4)c3C#N)CC2)n1	85 nM	55 nM	
C[C@H](F)[C@H]1COC(=O)N1c1ccnc(NC2(c3cn(-c4cc(C(F)(F)F)ccn4)cn3)CC2)n1	250 nM		
C[C@H](F)[C@H]1COC(=O)N1c1ccnc(NC2(c3ncn(-c4cccc(C(F)(F)F)c4)n3)CC2)n1	831 nM		
O=C1OC[C@H]([C@@H](F)CO)N1c1cc(Cl)nc(NC2(c3cn(-c4ccc(F)c(Cl)c4)cn3)CC2)n1			Drug uptake [13]: Active
C[C@H](F)[C@H]1COC(=O)N1c1ccnc(NC2(c3ncn(-c4cccc(C(F)(F)F)c4)c3Cl)CC2)n1	41 nM	26 nM	
C[C@H](F)[C@H]1COC(=O)N1c1ccnc(NC2(c3cn(-c4cncc(C(F)(F)F)c4)cn3)CC2)n1	152 nM		
C[C@H](F)[C@H]1COC(=O)N1c1ccnc(NC2(c3cn(-c4cccc(C(F)(F)F)n4)cn3)CC2)n1	266 nM		

Second part, led by results:

IC50 [1]	IC50 [2]	Compound	also measured
25 nM	12 nM	C[C@H](F)[C@H]1COC(=O)N1c1ccnc(NC2(c3cn(-c4ccc(F)c(Cl)c4)cn3)CC2)n1	CLint [3]: 185 mL/min/g; CLint [4]: 133 mL/min/g; CLint [5]: 125 mL/min/g; remaining at 1 h, 0.01 µM [6]: 22%; clearance [7]: 172 mL/min/kg; Vd [8]: 1.2 L/kg; AUC [9]: 40 ng·h/mL; AUC [10]: 25 ng·h/mL; bioavailability [11]: 20%
40 nM	21 nM	C[C@H](F)[C@H]1COC(=O)N1c1ccnc(NC2(c3cn(-c4ccc(F)c(Cl)c4)cn3)CCC2)n1	CLint [3]: 505 mL/min/g; CLint [4]: 372 mL/min/g; CLint [5]: 195 mL/min/g
42 nM	23 nM	C[C@H](F)[C@H]1COC(=O)N1c1ccnc(NC2(c3cn(-c4cccc(Cl)c4)cn3)CC2)n1	
32 nM	10 nM	C[C@H](F)[C@H]1COC(=O)N1c1ccnc(NC2(c3cn(-c4cccc(C(F)(F)F)c4)cn3)CC2)n1	CLint [3]: 430 mL/min/g; CLint [4]: 312 mL/min/g; CLint [5]: 153 mL/min/g
32 nM	25 nM	C[C@H](F)[C@H]1COC(=O)N1c1cc(Cl)nc(NC2(c3cn(-c4ccc(F)c(Cl)c4)cn3)CC2)n1	CLint [3]: 155 mL/min/g; CLint [4]: 123 mL/min/g; CLint [5]: 110 mL/min/g
36 nM	21 nM	C[C@H](F)[C@H]1COC(=O)N1c1ccnc(NC2(c3cn(-c4cc(Cl)cc(Cl)c4)cn3)CC2)n1	
54 nM	56 nM	C[C@H](F)[C@H]1COC(=O)N1c1ccnc(NC2(c3cn(-c4ccc(Cl)cc4)cn3)CC2)n1	
35 nM	18 nM	C[C@H](F)[C@H]1COC(=O)N1c1nc(NC2(c3cn(-c4ccc(F)c(Cl)c4)cn3)CC2)ncc1F	CLint [3]: 95 mL/min/g; CLint [4]: 89 mL/min/g; CLint [5]: 55 mL/min/g; clearance [7]: 65 mL/min/kg; Vd [8]: 0.6 L/kg; AUC [9]: 257 ng·h/mL; AUC [10]: 153 ng·h/mL; bioavailability [11]: 12%; AUC/dose [12]: 31 ng/mL.hr/(mg/kg)
27 nM	18 nM	C[C@H](F)[C@H]1COC(=O)N1c1ccnc(NC2(c3cn(-c4cc(F)cc(Cl)c4)cn3)CC2)n1	CLint [3]: 567 mL/min/g; CLint [4]: 240 mL/min/g; CLint [5]: 350 mL/min/g
721 nM		CC(F)(F)[C@H]1COC(=O)N1c1ccnc(NC2(c3cn(-c4ccc(F)c(Cl)c4)cn3)CC2)n1	
220 nM		C[C@H](F)[C@H]1COC(=O)N1c1ccnc(NC2(c3cn(-c4ccnc(C(F)(F)F)c4)cn3)CC2)n1	
